# Reference: patent publication US20240307497A1, “ADIPONECTIN ALONE OR IN COMBINATION WITH EXTRACORPOREAL PHOTOPHERESIS (ECP) FOR IMMUNE RELATED ADVERSE EVENTS OF IMMUNE CHECKPOINT INHIBITORS” (Mallinckrodt Pharmaceuticals Ireland Limited, priority 2022, published 2024)
# Assays:
# [1] = tested on: BRAF^V600E-mutant 4434 melanoma; assay: 4434 intravenous tumor model; format: in vivo, C57BL/6 mice; conditions: added to anti-PD1, second melanoma model
# [2] = tested on: s.c. B16.F10-OVA melanoma and MC38-OVA^dim colorectal tumors; assay: OVA-transgenic subcutaneous tumor models; format: in vivo, mice; conditions: OT-I and CD8^+OVA-Dextramer^+ T-cells, d16
# Procedure: C57BL/6 recipients were transplanted subcutaneously with 1×106 MC38-OVAdim or 0.5×10^6 MC38 cells into the shorn right flank. Recipients were treated i.p. with 0.2 mg ICI on days 1, 4, 8, 11, 15. ECP-treated splenocytes were transplanted (107; i.v.) on days 6, 11 and 15, daily steroids were given (i.p.) from days 6-15. On day 16, serum samples were harvested by retroorbital bleeding, the mice were euthanized and tumors were resected for further studies.
# CD45.1 recipients were transplanted subcutaneously with 1×106 B16.F10-OVA cells into the shorn right flank and treated i.p. with 0.2 mg ICI on day 1, 4, 8, 11, 15. ECP-treated splenocytes were transplanted (107; i.v.) on days 6, 11 and 15, daily steroids were given (i.p.) from days 6-15. OT-I splenocytes (CD45.2) were activated on day 2 at a density of 2×10^6 cells/mL in the presence of 100 U/mL rmIL-2 (Peprotech) and 0.1 μg/mL OVA257-264 peptide (Sigma) in RPMI supplemented with 10% FCS, 1% P/S, 55 μM beta-Mercaptoethanol (Gibco) and 4 mM glutamine (Gibco). Splenocytes were washed on day 4 and replated with 100 U/mL rmIL-2 at 2×10^6 cells/mL. […]
# For quantification of adiponectin concentrations in murine serum specimen, blood was harvested by retroorbital bleeding and serum was isolated by centrifugation. Adiponectin concentrations were measured using Adiponectin Mouse ELISA Kit (ThermoFisher) at 20,000-fold dilution.
# [3] = tested on: B16.F10 melanoma with DSS/anti-PD1-mediated colitis; assay: Combined colitis and B16.F10 tumor model; format: in vivo, C57BL/6 mice
# Procedure: C57BL/6 mice were intravenously injected with 10 000 B16.F10luc/GFP melanoma cells in the tail vein and received 3% Dextran Sodium Sulfate (DSS colitis grade, 36-50 kDa; MP Biomedicals) in drinking water from day 9-12, followed by normal drinking water. Mice were treated with 0.2 mg ICI or the respective isotype control on days 1, 4, 8, 16 and 22. ECP-treated splenocytes were transplanted (107; i.v.) on days 13, 18 and 22, daily steroid was given (i.p.) from days 13-22. Mice were imaged with BLI on day 23, organs and serum were harvested on day 24.
# Luciferin (D-luciferin, potassium salt (S)-4,5-Dihydro-2-(6-hydroxy-2-benzothiazolyl)-4-thiazolecarboxylic acid potassium salt; Biosynth) was dissolved in H2O and injected i.p. at a concentration of 150 μg/g body weight. After 10 minutes, the mice were imaged using an IVIS Lumina III in vivo imaging system (PerkinElmer) with an exposure time of 2 minutes. The luciferase signal was quantified in photons per second per mouse. Acquisition, analysis, and visualization of BLI were performed using Living Image Software (PerkinElmer).
# B16.F10 melanoma [4] = assay: B16.F10 intravenous/metastatic tumor model; format: in vivo, C57BL/6 mice; conditions: added to anti-PD1, vs anti-PD1-therapy alone
# Procedure: C57BL/6 mice were intravenously injected with 10 000 B16.F10luc/GFP melanoma cells in the tail vein and treated with 0.2 mg ICI or the respective isotype control on day 1, 4, 8, 16 and 22. ECP-treated splenocytes were transplanted (107; i.v.) on days 13, 18, and 22, and daily steroids were given (i.p.) from days 13-22. Survival of the mice was monitored until day 60.
# B16.F10 melanoma [5] = assay: Recall immunity experiment; format: in vivo, mice; conditions: T-cells of treated donors into secondary B16.F10 recipients
# Text: For evaluation of recall immunity, T-cell donor mice were challenged with 104 B16.F10 melanoma cells (i.v.) and treated with anti-PD1 (days 1, 3, 6, 9, 12), ECP (days 3, 7, 12) or steroids (days 3-12). Secondary recipients were sub-lethally irradiated with 6 Gy TBI and injected i.v. with 104 B16.F10 or 2×10^6 4434 melanoma cells. Splenic T-cells were enriched from T-cell donors on day 13 using the Pan T-cell Isolation Kit II (mouse, Miltenyi) and 1×105 T-cells were transplanted i.v. into secondary recipients on day 3 following tumor injection. Untreated melanoma mice served as control.
smiles,measurement,setting,value
"C[C@]12C=CC(=O)C=C1CC[C@@H]1[C@@H]2[C@@H](O)C[C@@]2(C)[C@H]1CC[C@]2(O)C(=O)CO [Steroids, Prednisolone]",survival,[1],findings were reproduced
same,tumor-specific T-cells in the tumor microenvironment,[2],reduction of adoptively-transferred OT-I T-cells and endogenous CD8^+OVA-Dextramer^+ T-cells
same,colitis in melanoma-bearing mice,[3]; d23,similarly reduced
same,tumor burden / control of tumor growth,[3]; luminescence imaging and melanoma transcripts in lungs,higher tumor burden
same,survival,B16.F10 melanoma [4],reduced survival
same,recall-immunity of transferred T-cells,B16.F10 melanoma [5],this was not the case
